Laboratory results taken from ChEMBL document CHEMBL1201862, “PubChem BioAssay data set” (2004).
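These data come from cells grown in 96-well plates and exposed to compound for 48 hours at five concentrations. Here, GI50 denotes the concentration required for 50% inhibition of growth.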 The source made the active and inactive calls. No stated cut-off is given here; in the data, active = GI50 up to about 1.1 µM and inactive = higher.

How the values were obtained:
Test in all cases: NCI tumour cell line growth inhibition, 48 h
A549 = tested on: A549
COLO 205 = tested on: COLO 205
DU-145 = tested on: DU-145
KM12 = tested on: KM12
MDA-MB-231 = tested on: MDA-MB-231
Malme-3M = tested on: Malme-3M
NCI-H522 = tested on: NCI-H522
OVCAR-4 = tested on: OVCAR-4
PC-3 = tested on: PC-3
RXF 393 = tested on: RXF 393
SF-268 = tested on: SF-268
SF-295 = tested on: SF-295
SK-MEL-5 = tested on: SK-MEL-5
SK-OV-3 = tested on: SK-OV-3
SN12C = tested on: SN12C
SNB-75 = tested on: SNB-75
U-251 = tested on: U-251
HL-60 = tested on: HL-60
HOP-92 = tested on: HOP-92
SR = tested on: SR

| Structure (SMILES) | GI50 (A549) | GI50 (COLO 205) | GI50 (DU-145) | GI50 (KM12) | GI50 (MDA-MB-231) | GI50 (Malme-3M) | GI50 (NCI-H522) | GI50 (OVCAR-4) | GI50 (PC-3) | GI50 (RXF 393) | GI50 (SF-268) | GI50 (SF-295) | GI50 (SK-MEL-5) | GI50 (SK-OV-3) | GI50 (SN12C) | GI50 (SNB-75) | GI50 (U-251) | GI50 (HL-60) | GI50 (HOP-92) | GI50 (SR) |
| --- | --- | --- | --- | --- | --- | --- | --- | --- | --- | --- | --- | --- | --- | --- | --- | --- | --- | --- | --- | --- |
| COC(=O)[C@@H](N1C(=O)c2ccccc2C1=O)C1(C)CC(Cl)=NO1 (stereo not given in full) | 86.1 µM (inactive) | > 100 µM (inactive) | 44 µM (inactive) | > 100 µM (inactive) | 19.1 µM (inactive) | > 100 µM (inactive) | 35 µM (inactive) | > 100 µM (inactive) | > 100 µM (inactive) | 41.5 µM (inactive) | 29.3 µM (inactive) | 28.1 µM (inactive) | > 100 µM (inactive) | 33.8 µM (inactive) | 33 µM (inactive) | 17.8 µM (inactive) | 26.2 µM (inactive) |  |  |  |
| CCOC(=O)Nc1ccc(S(=O)(=O)OC)cc1.CCOC(=O)Nc1ccc(S(=O)(=O)OC)cc1.NC(=O)NCCO | > 50 µM (inactive) | 30.9 µM (inactive) |  | > 50 µM (inactive) |  | > 50 µM (inactive) | > 50 µM (inactive) | 41.9 µM (inactive) |  | > 50 µM (inactive) | > 50 µM (inactive) | > 50 µM (inactive) | > 50 µM (inactive) | > 50 µM (inactive) | > 50 µM (inactive) | > 50 µM (inactive) | 23 µM (inactive) | 16.7 µM (inactive) | > 50 µM (inactive) | > 50 µM (inactive) |
| c1cc(Sc2nc(Sc3ccncc3)nc(Sc3ccncc3)n2)ccn1 | > 100 µM (inactive) | > 100 µM (inactive) | > 100 µM (inactive) | > 100 µM (inactive) | > 100 µM (inactive) | > 100 µM (inactive) | > 100 µM (inactive) | > 100 µM (inactive) | > 100 µM (inactive) | > 100 µM (inactive) | > 100 µM (inactive) | > 100 µM (inactive) | > 100 µM (inactive) | > 100 µM (inactive) | > 100 µM (inactive) |  | > 100 µM (inactive) | > 100 µM (inactive) | > 100 µM (inactive) |  |
| C/C=C1/C(=Cc2[nH]c(C=c3[nH]/c(=C/C4=NC(=O)C(CC)=C4C)c(C)c3CCC(=O)O)c(CCC(=O)O)c2C)NC(=O)C1C (stereo not given) | 10.5 µM (inactive) | 18.1 µM (inactive) |  | 10.8 µM (inactive) |  | 13.6 µM (inactive) | 6.19 µM (inactive) | 11.1 µM (inactive) |  | > 50 µM (inactive) | 7.89 µM (inactive) | 6.65 µM (inactive) |  | 42.1 µM (inactive) | 3.3 µM (inactive) | 4.79 µM (inactive) | 7.48 µM (inactive) | 7.59 µM (inactive) | 0.0173 µM (active) | 4.37 µM (inactive) |
| c1c(N2CCOCC2)s[s+]c1N1CCOCC1 | > 100 µM (inactive) |  |  | > 100 µM (inactive) |  | > 100 µM (inactive) | > 100 µM (inactive) | > 100 µM (inactive) |  | > 100 µM (inactive) | > 100 µM (inactive) | > 100 µM (inactive) | > 100 µM (inactive) | > 100 µM (inactive) | > 100 µM (inactive) | > 100 µM (inactive) | > 100 µM (inactive) | > 100 µM (inactive) | > 100 µM (inactive) | > 100 µM (inactive) |
| COC(=O)C1=C(C(=O)OC)SC(=C(/N=N/c2ccccc2)c2ccccc2)S1 | > 100 µM (inactive) | > 100 µM (inactive) |  | > 100 µM (inactive) |  | > 100 µM (inactive) | 83.6 µM (inactive) | > 100 µM (inactive) |  |  | > 100 µM (inactive) | > 100 µM (inactive) | > 100 µM (inactive) | > 100 µM (inactive) | > 100 µM (inactive) | > 100 µM (inactive) | > 100 µM (inactive) | > 100 µM (inactive) | > 100 µM (inactive) | > 100 µM (inactive) |
| CC1(C)OC(C(N)=O)=C(C(N)=O)O1 | > 100 µM (inactive) | > 100 µM (inactive) |  | > 100 µM (inactive) |  | > 100 µM (inactive) | > 100 µM (inactive) | > 100 µM (inactive) |  | > 100 µM (inactive) | > 100 µM (inactive) | > 100 µM (inactive) |  | > 100 µM (inactive) | > 100 µM (inactive) | > 100 µM (inactive) | > 100 µM (inactive) | > 100 µM (inactive) | > 100 µM (inactive) | 6.53 µM (inactive) |
| O=C(CSc1nc2ccc([N+](=O)[O-])cc2s1)c1ccc2ccccc2c1 | > 100 µM (inactive) | > 100 µM (inactive) | > 100 µM (inactive) | > 100 µM (inactive) | > 100 µM (inactive) | > 100 µM (inactive) | > 100 µM (inactive) | 41.2 µM (inactive) | 88.1 µM (inactive) | > 100 µM (inactive) | > 100 µM (inactive) | 93.1 µM (inactive) | > 100 µM (inactive) | > 100 µM (inactive) | > 100 µM (inactive) | > 100 µM (inactive) | > 100 µM (inactive) | > 100 µM (inactive) | 57.7 µM (inactive) |  |
| COC(=N)c1ncn(Cc2ccccc2)c1N | > 100 µM (inactive) | > 100 µM (inactive) | > 100 µM (inactive) | > 100 µM (inactive) | > 100 µM (inactive) | > 100 µM (inactive) | > 100 µM (inactive) | > 100 µM (inactive) | > 100 µM (inactive) | > 100 µM (inactive) | > 100 µM (inactive) | > 100 µM (inactive) | > 100 µM (inactive) | > 100 µM (inactive) | > 100 µM (inactive) | > 100 µM (inactive) | > 100 µM (inactive) |  | > 100 µM (inactive) |  |
| COC(=O)[C@]1(C)CCCC2(C)C1CC[C@H]1C=C(C)[C@H]3CCC12C3 (stereo not given in full) | > 100 µM (inactive) | > 100 µM (inactive) |  | > 100 µM (inactive) |  | > 100 µM (inactive) | 45 µM (inactive) | > 100 µM (inactive) |  | 55.3 µM (inactive) | > 100 µM (inactive) | > 100 µM (inactive) | 98.2 µM (inactive) | > 100 µM (inactive) | > 100 µM (inactive) | > 100 µM (inactive) | > 100 µM (inactive) | 86.1 µM (inactive) | > 100 µM (inactive) | > 100 µM (inactive) |
| COc1ccc(-c2nc3ccccc3c(=S)n2OC(C)=O)cc1 | 2.5 µM (inactive) | 2.38 µM (inactive) | 5.11 µM (inactive) | 1.64 µM (inactive) | > 25 µM (inactive) | 4.76 µM (inactive) |  | 8.32 µM (inactive) | 1.29 µM (inactive) | 8.75 µM (inactive) | 2.99 µM (inactive) | 2.25 µM (inactive) | 2.93 µM (inactive) | 5.71 µM (inactive) | 8.07 µM (inactive) | 6.84 µM (inactive) | 2.56 µM (inactive) | 1.04 µM (active) | > 25 µM (inactive) |  |
| CCOC(=O)c1csc(-c2nc(CCNC(=O)c3ccccc3)sc2Cl)n1 | > 100 µM (inactive) | 77.3 µM (inactive) | > 100 µM (inactive) | 69.2 µM (inactive) |  | > 100 µM (inactive) |  |  | 32.1 µM (inactive) | > 100 µM (inactive) | 60 µM (inactive) | > 100 µM (inactive) | 42.7 µM (inactive) | > 100 µM (inactive) | > 100 µM (inactive) | 49.4 µM (inactive) | 73.8 µM (inactive) | 41.5 µM (inactive) | 5.74 µM (inactive) | 37.1 µM (inactive) |
